In patent US11401376B2, “Chemical compounds for coating of nanostructures” (Spago Nanomedical AB, priority 2017, dated 2022):

Key:
Type in all cases: physicochemical
[1] = Calcium induced aggregation of the coated nanostructures (Example 15); details: 0-8 mM CaCl2, 10 mM Tris-HCl 150 mM NaCl pH 7.4, 1 h room temperature
Method: Volumes of nanostructure were added to 1 ml aliquots of 10 mM Tris-HCl 150 mM NaCl pH 7.4 containing 0, 0.5, 1, 2, 4 and 8 mM CaCl2) in microcentrifuge tubes so that the final concentration of phosphorus was 0.5 mM. The samples were vortexed, incubated at room temperature for 1 h and centrifuged for 10 min at 12000×g. The supernatants (700 μl) were removed and analyzed by ICP for phosphorus concentrations. The phosphorus concentrations were normalized to the concentration in corresponding samples without CaCl2) and plotted as ‘% remaining in solution’ against the concentration of CaCl2) in the reaction mixture. When 90% or more remains in solution the material is considered robust against calcium induced aggregation.

[2] = Heat treatment, loss of coating (Example 17); details: for Loss of coating: coated nanostructures, 80° C. for 30 minutes, washed on 10 kDa filter, Si/P ratio by ICP-OES
Method: The sample was moved to a 20 mL flask and degassed by three N2-vacuum cycles and was then kept under N2. The sample was heated in a silicon oil bath at 80° C. for 30 minutes and was then cooled to ambient room temperature. A reference aliquot was withdrawn (A). The remaining sample was washed with four times with milliQ water on a 10 kDa Vivaspin 6 centrifugation filter (Sartorious). A reference aliquot (B) was withdrawn from the retentate. Reference aliquots A, and B were analyzed with ICP-OES.

[3] = Stability of coated nanostructures on manganese loading / process conditions (GFC, Example 18)
Method: 200 ml of the crude solution of coated nanostructures of Example 13b was added a solution of 0.256 g MnCl2.4H2O dissolved in 2.56 ml ethylene glycol. The pH was adjusted to 4.07 with 1 M NaOH. The manganese solution was added to the reaction. An aliquot A was taken out. The reaction was heated at 100° C. for 25 h 30 min after which the temperature descended to ambient room temperature. An aliquot B was withdrawn.

hydrolysis of the coating bound to polymeric nanostructures ([2]; neutral to basic conditions)	stability of coated nanostructures under the coating / process conditions [3]	Substance	Ca resistance [1]	Loss of coating [2] [%]
prone to slow hydrolysis	–	1-[ω-methyl-(ethyleneoxy)12-20]-3-(prop-3-triethoxysilyl-1-yl- [A]	Y (When 90% or more remains in solution the material is considered robust against calcium induced aggregation)	5
–	–	4-[ω-methyl-(ethyleneoxy)12-20]hepta-1,6-diene [Compound 43]	–	0
–	degraded substantially	N,N-bis(prop-3-trimethoxysilyl-1-yl)-2-[ω-methyl-(ethyleneoxy)8-11]acetamide [Compound 54]	–	–
